Results reported in patent US8097650B2, “Method of treating a condition associated with phosphorylation of TASK-1” (The Trustees of Columbia University In The City of New York, priority 2005, dated 2012).

How the values were obtained:
[1] = tested on: murine ventricular myocytes; experiment: Arrhythmias induced by PKCε activator peptide in murine ventricular myocytes, rescue by TREK-1 activators; assay type: cell-based, mouse; conditions: AA 100 nM or tyrphostin 47 50 μM from 1 min after rupture
Method: FIGS. 23A-23D. Activation of TREK-1 can overcome arrhythmias induced by inhibition of TASK-1. Isolated murine ventricular myocytes were studied in current clamp mode and paced at 1 Hz. The cells were studied in regular Tyrode's, pH 7.4. Recordings were begun immediately after rupture and continued for 12-15 min, with the 5.5 min time point illustrated. A PKCε-specific activator peptide (100 nM) was included in the patch pipette, which lead to inhibition of TASK-1 current and repolarization abnormalities (23A and 23B).
FIG. 25. Activation of TREK-1 can overcome arrhythmias induced by inhibition of TASK-1. Isolated murine ventricular myocytes were studied in current clamp mode and paced at 1 Hz. The cells were studied in regular Tyrode's, pH 7.4. Recordings were begun immediately after rupture and continued for 12-15 min. A PKCε-specific activator peptide (100 nM) […] or a scrambled control peptide (100 nM) (25A) was included in the patch pipette. After the activator peptide had induced repolarization abnormalities (25B left panel), a TREK-1 activator, ONO-RS-082 (100 nM) was added to the superfusion.
Isolated murine ventricular myocytes were studied in current clamp mode and paced at 1 Hz. The cells were studied in regular Tyrode's, pH 7.4, and recordings were begun immediately after rupture and continued for 12-15 min, with the 5.5 min timepoint illustrated. As shown in FIGS. 23A and 23B, a PKCε-specific activator peptide (100 nM) was included in the patch pipette which lead to inhibition of TASK-1 current and repolarization abnormalities.

[2] = biological target: T1, TREK-1 (Homo sapiens, UniProt O95069); experiment: Heterologous expression of TREK-1, lipoxygenase products; assay type: cell-based; parameters: expressed in transfected cells
T1 sequence (O95069 1-426): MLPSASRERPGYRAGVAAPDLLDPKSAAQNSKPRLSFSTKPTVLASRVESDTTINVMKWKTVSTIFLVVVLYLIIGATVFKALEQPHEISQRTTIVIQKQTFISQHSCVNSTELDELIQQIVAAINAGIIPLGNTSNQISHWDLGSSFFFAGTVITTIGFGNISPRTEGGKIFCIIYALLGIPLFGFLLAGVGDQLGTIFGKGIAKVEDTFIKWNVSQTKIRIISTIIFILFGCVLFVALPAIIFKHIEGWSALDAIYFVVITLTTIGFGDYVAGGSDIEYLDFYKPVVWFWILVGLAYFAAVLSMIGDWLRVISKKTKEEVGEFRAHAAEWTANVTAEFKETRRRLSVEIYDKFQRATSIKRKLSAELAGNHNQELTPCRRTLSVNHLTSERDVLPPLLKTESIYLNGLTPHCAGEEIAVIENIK
Source text: In heterologous expression studies of one 2PK, TREK-1, it has been observed that a divergence in the sensitivity of the channel to various lipoxygenase products exists. […] Altered channel function may underlie some of the aberrant regulation of cell proliferation characteristic of the carcinoma cells. In addition, it has been observed that Northern analysis of normal prostate tissue show expression of TASK-1, TASK-3 and TREK-1 in prostate (Duprat F et al., […] EMBO J. 16:5464-71; Mu D et al., (2003) Cancer Cell, 3:297-302; Medhurst A D et al., (2001) Brain Res, 86:101-14).

[3] = tested on: murine TASK-1; experiment: TASK-1 current expressed in CHO cells (whole-cell ramp clamp); assay type: cell-based, mouse; conditions: peptide 100 nM in pipette, PMA 100 nM; for effect of peptide on C-PAF and PMA inhibition of TASK-1 current: C-PAF 185 nM
Method: The TASK-1 clone (provided by Professor Y. Kurachi, Osaka University) was co-transfected in CHO cells with CD8 plasmid using Lipofectamine Plus (Invitrogen) according to the manufacturer's instructions. 48 h later cells were transferred to the electrophysiology chamber and anti-CD8 coated beads (Dynal Biotech) were added to identify CD8 expressing cells. Expressing cells were voltage clamped using a ramp clamp (see below). CHO cells were used in these experiments, in part, because they express endogenous PAFR.
Chinese hamster ovary cells (CHO) were grown in F-12 medium supplemented with 10% fetal bovine serum. Twenty-four hours prior to transfection, cells were seeded into 6 well plates at 80-90% of confluence. Transfections were carried out with the GeneJammer transfection reagent (Stratagene) according to the manufacturer's instructions. Briefly, cells were washed with PBS and their medium replaced with supplemented F-12 medium (900 μl/well). For each well, GeneJammer (6 μl) was incubated with Opti-MEM (90 μl) followed by the addition of DNA (1 μg). This mixture was then added to the wells and 3 h later an additional 2 ml of supplemented F-12 medium was added. After incubating overnight, the cells were washed and their medium replaced.
Cells were either co-transfected with pCMV-TASK1 together with pEGFP-C1 (1 μg total, 3:1) or transfected with […] or T381A-pTIE (1 μg). 48 h after the transfection the cells were checked under the microscope for green fluorescence. Approximately 20% of the cells were positive for EGFP and these were then used for patch-clamp experiments. Due to the culture-to-culture variability in the expression of TASK-1 current, most comparisons were made on matched controls from the same transfection. Summary results were then obtained by pooling data from several different culture preparations.
(§1) The myocyte suspension or the coverslip with CHO cells was placed into a perfusion chamber, mounted on the stage of an inverted microscope. Unless otherwise indicated, CHO cells were superfused at room temperature with standard external Tyrode's buffer, containing (mM): NaCl, 140; KCl, 5.4; CaCl2, 1; MgCl2, 1; HEPES, 5; glucose, 10; adjusted to pH 7.4. Recordings were begun after the current reached a stable baseline (usually 3 to 4 min after initial cell rupture). In myocytes, TASK-1 current is small and exists in the presence of numerous larger K^+ currents. In order to increase the inward component of TASK-1 current and to block other potassium currents in myocytes, a modified high K^+ external solution (modified Tyrode's) was used to reduce outward rectification of TASK-1 current. The composition of this solution-was (in mM): NaCl, 100; KCl, 50; CaCl2, 1; MgCl2, 1; HEPES, 5; glucose, 10; tetraethylammonium (TEA), 1; CsCl, 5; adjusted to pH 7.4. Membrane potential and current were measured in the whole cell configuration using borosilicate glass pipettes with a tip resistance between […] and filled with a pipette solution containing (mM): aspartic acid, 130; KOH, 146; NaCl, 10; CaCl2, 2; EGTA, 5; HEPES, 10; MGATP, 2; pH 7.2. The stock solutions of C-PAF and of the PKC inhibitor, bisindolylmaleimide (BIM-I; Calbiochem), were prepared in water and diluted to the final concentrations in Tyrode's or modified Tyrode's, as appropriate. The PKC activator, PMA, was prepared in DMSO and then diluted in Tyrode's. […] Myocytes treated with the peptides were monitored continuously beginning immediately after rupture to detect the occurrence of any arrhythmias during dialysis of the peptide. Application of C-PAF to cells treated with the inhibitor peptide was started after the peptide had been permitted to dialyse into the cell (8-10 min after rupture for CHO or 10-12 min after rupture for myocytes).
The current and the voltage protocols were generated using Clampex 8.0 software applied by means of an Axopatch 200-B and a Digidata 1200 interface (Axon Instruments). […]

[4] = tested on: mouse ventricular myocytes; experiment: Repolarization abnormalities in mouse ventricular myocytes paced at 1 Hz with PKCε peptides; assay type: cell-based
Method: (§2) Mouse ventricular myocytes were isolated using a retrograde coronary perfusion method previously published (Kuznetsov V et al. (1995) Circ Res 76: 40-52). All the experiments were carried out according to the guidelines issued by the IACUC of Columbia University. Adult mice 2 or 3 months old, were anaesthetized with a xylazine and ketamine mix and heparinized, the heart was quickly removed and the ascending aorta was connected to the outlet of a Langendorff column and perfused with 20-25 ml of a buffer solution (37° C.) containing (mM):NaCl, 112; KCl, 5.4; NaHCO3, 4.2; MgCl2, 1.6; HEPES, 20; glucose, 5.4; NaH2PO4, 1.7; taurine, 10; L-glutamine, 4.1; MEM amino acids solution, 2%; MEM vitamin solution, 1%; adjusted to pH 7.4, and equilibrated with 100% O2. Next, the heart was perfused with an enzyme solution containing collagenase (0.2 mg/ml; Worthington Type II) and trypsin (0.04 mg/ml) at 35° C. for 10-12 min. After this perfusion, the atria were removed and the ventricles minced and transferred to a 50 ml flask with an enzyme solution containing collagenase (0.45 mg/ml), trypsin (0.08 mg/ml), Ca^2+ (0.75 mM) and bovine serum albumin (BSA; 4.8 mg/ml). The flask was shaken vigorously for 5-10 min at 32° C. before the supernatant was removed and the cells were collected by centrifugation, this operation was repeated two or three times and additional disaggregated cells were collected. After centrifugation, the myocytes were resuspended in the buffer solution containing Ca^2+ (0.75 mM) and BSA and stored at room temperature until use. Rod-shaped, Ca^2+-tolerant myocytes, obtained with this procedure, were used within 6 h of dissociation. Measurements were performed only on quiescent myocytes with clear striations
as §1
The current and the voltage protocols were generated using Clampex 8.0 software applied by means of an Axopatch 200-B and a Digidata 1200 interface (Axon Instruments). In current clamp mode, for recording action potentials, the signals were filtered at 1 KHz (low pass Bessel filter) and acquired at a sampling rate of 5 KHz. […]

[5] = tested on: TASK-1; experiment: C-PAF-sensitive TASK-1 current in mouse ventricular myocytes dialyzed with PKCε peptides; assay type: cell-based; conditions: for effect of peptide on ability of C-PAF to reduce TASK-1 current: held at −10 mV, peptide 100 nM in pipette, C-PAF 185 nM
Method: as §2
The myocyte suspension or the coverslip with CHO cells was placed into a perfusion chamber, mounted on the stage of an inverted microscope. Unless otherwise indicated, CHO cells were superfused at room temperature with standard external Tyrode's buffer, containing (mM): NaCl, 140; KCl, 5.4; CaCl2, 1; MgCl2, 1; HEPES, 5; glucose, 10; adjusted to pH 7.4. Recordings were begun after the current reached a stable baseline (usually 3 to 4 min after initial cell rupture). In myocytes, TASK-1 current is small and exists in the presence of numerous larger K^+ currents. […] Membrane potential and current were measured in the whole cell configuration using borosilicate glass pipettes with a tip resistance between […] and filled with a pipette solution containing (mM): aspartic acid, 130; KOH, 146; NaCl, 10; CaCl2, 2; EGTA, 5; HEPES, 10; MGATP, 2; pH 7.2. […] Myocytes treated with the peptides were monitored continuously beginning immediately after rupture to detect the occurrence of any arrhythmias during dialysis of the peptide. […]

[6] = biological target: T1, TREK-1; experiment: Human TREK-1 current in CHO cells (ramp clamp); assay type: cell-based; parameters: expressed in transfected cells; host or cells: CHO cells; conditions: ramp −130 to +40 mV, typical of 7 cells
Method: FIG. 18. Structure-activity analysis of activators of human TREK-1 channel. Human TREK-1 was expressed in CHO cells and current was measured during a ramp protocol (−120 to +50 mV in 6 s). The activation of the current at +50 mV in the presence of various putative TREK-1 activators was measured and summarized in the bar graph as % activation over basal. Various endogenous lipids, most related to lipoxygenase metabolites of either arachidonic acid or linoleic acid, were tested (all at 100 nM).
FIG. 21. CHO cells (hTREK-1, hTASK-1) or HEK cells (mTRAAK) were co-transfected with plasmids encoding one of the two pore domain channels and GFP using the GeneJammer reagent. After 48-60 h, the expressed current was measured using a ramp protocol while the cells were perfused with regular Tyrode's solution containing varying concentrations of ONO-RS-082 (range of concentration from 10 nM to 500 μM as noted in FIG. 21) until a steady state was reached. Each cell was exposed to only one concentration of drug. Panel A: TREK-1 current was determined using a ramp clamp, and the percent increase induced by ONO-RS-082 was measured at the most positive imposed voltage (n≧5). The EC50 for activation was around 3 μM and the basal and ONO-activated current densities are noted. Panel B: TASK-1 current was determined using a ramp clamp in Tyrode's solution at pH=8 and the percent increase induced by ONO-RS-082 was measured at the most positive imposed voltage (n≧4). The EC50 was around 8 μM and the basal and ONO-activated current densities are noted. Panel C: TRAAK current was determined using a ramp clamp, and the percent increase induced by ONO-RS-082 was measured at the most positive imposed voltage (n≧4). The EC50 was around 0.9 μM and the basal and ONO-activated current densities are noted.
Subsequently, the structure-activity analysis of activators of human TREK-1 channel was determined. […] The activation of the current at +50 mV in the presence of various putative TREK-1 activators was measured and summarized in the bar graph as % activation over basal.
CHO cells were transfected with a plasmid encoding human TREK-1 and the current was studied by patch clamp. The current-voltage relation was determined using a ramp protocol that went from −130 mV to +40 mV in 6 s (after correction for the junction potential). […] This is typical of 7 cells.

Molecule: N#C/C(=C\c1ccc(O)c(O)c1)C(N)=S [tyrphostin 47]
- arrhythmias induced by PKCε activator peptide during drug superfusion [1]: fewer arrhythmias

Molecule: CCCCC[C@H](O)/C=C/C=C\CCCCCCCC(=O)O [13-HODE, 13(S)-hydroxyoctadecadienoic acid]
- effect on TREK-1 current [2]: reduces current

Molecule: EAVSLKPT [PKCε-inhibitor peptide]
- effect of peptide on PMA-sensitive current [3]: completely blocked
- effect of peptide on C-PAF and PMA inhibition of TASK-1 current [3]: blocked the effect
- repolarization abnormalities ([4]; C-PAF, PKCε-specific inhibitor peptide 100 nM in pipette): completely absent
- effect of peptide on ability of C-PAF to reduce TASK-1 current [5]: significantly inhibited
- C-PAF-sensitive current in the presence of peptide ([5]; ramp −50 to +30 mV, modified Tyrode's, inhibitor peptide 100 nM): abolished

Molecule: LSETKPAV [scrambled peptide]
- effect of peptide on C-PAF and PMA inhibition of TASK-1 current [3]: no effect
- cells with repolarization abnormalities / abnormal automaticity ([4]; peptide in pipette, no added C-PAF): 2 of 10
- effect of peptide on ability of C-PAF to reduce TASK-1 current [5]: had no effect

Molecule: CCCCCC(/C=C/C=C\C/C=C\C/C=C\CCCC(=O)O)OO (stereo not shown) [15-HPETE]
- effect on TREK-1 current [2]: increases TREK-1 current

Molecule: CCCCC/C=C\C/C=C\C/C=C\C/C=C\CCCC(=O)O [arachidonic acid]
- arrhythmias induced by PKCε activator peptide during drug superfusion [1]: fewer arrhythmias

Molecule: Cc1ccc(Cl)c(Nc2ccccc2C(=O)O)c1Cl [meclofenamate, Meclofenamic acid]
- TREK-1 current in the presence of drug [6]: Current was greater
